Data from patent US9193731B2, “Antimicrobial compounds and methods of making and using the same” (Melinta Therapeutics, Inc., priority 2009, dated 2015).

Tested on: Escherichia coli strain ATCC25922
Assay: standard microdilution assay to determine minimum inhibitory concentrations (MICs)
Format: cell-based
Conditions: for MIC: Escherichia coli, ATCC25922, Escherichia coli strain ATCC25922, microdilution, read-out: E. coli ATCC25922 MIC; for E. coli ATCC25922 MIC: Escherichia coli strain ATCC25922, microdilution
How it was run: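 E. coli strain ATCC25922 tested per CLSI microdilution methodology (about 100 microliters per well) to find minimum inhibitory concentrations. Activity scored categorically at a 16 micrograms/ml threshold.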

SMILES	MIC	E. coli ATCC25922 MIC
NCc1ccc(-n2cc3cc(-c4cccc(OC[C@H](F)CN)c4)[nH]c3nc2=O)cc1 [Compound 1443]	> 16 µg/mL	–
CO[C@@H](CN)COc1cccc(-c2cc3cn(-c4ccc(CN)cc4)c(=O)nc3[nH]2)c1 [Compound 1444]	> 16 µg/mL	–
N=C(N)NCCCNCc1ccc(-n2cc3cc(-c4cccc(CCCN)c4)[nH]c3nc2=O)cc1 [Compound 1446]	–	+ (a “+” indicates that the compound has an MIC value of 16 micrograms/ml or less)
N=C(N)NCCCNCc1ccc(-n2cc3cc(-c4cccc(OCCC5(N)CCCC5)c4)[nH]c3nc2=O)cc1 [Compound 1447]	–	+ (a “+” indicates that the compound has an MIC value of 16 micrograms/ml or less)
N=C(N)NCCCNCc1ccc(-n2cc3cc(C4CCN(CCCN)C4)[nH]c3nc2=O)cc1 (stereo not drawn) [Compound 1448]	–	+ (a “+” indicates that the compound has an MIC value of 16 micrograms/ml or less)
N=C(N)NCCCNCc1ccc(-n2cc3cc(-c4cccc(SCCN)c4)[nH]c3nc2=O)cc1 [Compound 1451]	–	+ (a “+” indicates that the compound has an MIC value of 16 micrograms/ml or less)
N=C(N)NCCCNCc1ccc(-n2cc3cc(-c4cccc(OCC5CNCCO5)c4)[nH]c3nc2=O)cc1 (stereo not drawn) [Compound 1452]	–	+ (a “+” indicates that the compound has an MIC value of 16 micrograms/ml or less)
COC(CN)COc1cccc(-c2cc3cn(-c4ccc(CNCCCNC(=N)N)cc4)c(=O)nc3[nH]2)c1 (stereo not drawn) [Compound 1453]	–	+ (a “+” indicates that the compound has an MIC value of 16 micrograms/ml or less)
N=C(N)NCCCNCc1ccc(-n2cc3cc(-c4cccc(OCC(CN)OCC(F)(F)F)c4)[nH]c3nc2=O)cc1 (stereo not drawn) [Compound 1455]	–	+ (a “+” indicates that the compound has an MIC value of 16 micrograms/ml or less)
N=C(N)NCCCNCc1ccc(-n2cc3cc(C4CCN(CC(O)CN)C4)[nH]c3nc2=O)cc1 (stereo not drawn) [Compound 1456]	–	+ (a “+” indicates that the compound has an MIC value of 16 micrograms/ml or less)
N=C(N)NCCCNCc1ccc(-n2cc3cc(C4CCN(CC5CNC(=O)O5)C4)[nH]c3nc2=O)cc1 (stereo not drawn) [Compound 1457]	–	− (a “−” indicates that the compound has an MIC value greater than 16 micrograms/ml)
CCOC(CN)COc1cccc(-c2cc3cn(-c4ccc(CNCCCNC(=N)N)cc4)c(=O)nc3[nH]2)c1 (stereo not drawn) [Compound 1458]	–	+ (a “+” indicates that the compound has an MIC value of 16 micrograms/ml or less)
N=C(N)NCCCNCc1ccc(-n2cc3cc(-c4ccc(S(=O)(=O)N5CC(N)C5)cc4)[nH]c3nc2=O)cc1 [Compound 1459]	–	+ (a “+” indicates that the compound has an MIC value of 16 micrograms/ml or less)
N=C(N)NCCCNCc1ccc(-n2cc3cc(-c4cccc(S(=O)(=O)CCCN)c4)[nH]c3nc2=O)cc1 [Compound 1460]	–	+ (a “+” indicates that the compound has an MIC value of 16 micrograms/ml or less)
N=C(N)NCCCNCc1ccc(-n2cc3cc(-c4ccc(C(NC5CNC5)C(F)F)cc4)[nH]c3nc2=O)cc1 (stereo not drawn) [Compound 1462]	–	+ (a “+” indicates that the compound has an MIC value of 16 micrograms/ml or less)
N=C(N)NCCCNCc1ccc(-n2cc3cc(-c4cc(OCC(F)CN)cc(OC(F)(F)F)c4)[nH]c3nc2=O)cc1 (stereo not drawn) [Compound 1463]	–	+ (a “+” indicates that the compound has an MIC value of 16 micrograms/ml or less)
N=C(N)NCCCNCc1ccc(-n2cc3cc(C4CCN(CC(F)CN)C4)[nH]c3nc2=O)cc1 (stereo not drawn) [Compound 2000a]	–	+ (a “+” indicates that the compound has an MIC value of 16 micrograms/ml or less)
N=C(N)NCCCNCc1ccc(-n2cc3cc(-c4cc(OCC(F)CN)cc(-c5cccnc5)c4)[nH]c3nc2=O)cc1 (stereo not drawn) [Compound 2001a]	–	− (a “−” indicates that the compound has an MIC value greater than 16 micrograms/ml)

SMILES	MIC	E. coli ATCC25922 MIC
CS(=O)(=O)c1ccc(-c2cc(OCC(F)CN)cc(-c3cc4cn(-c5ccc(CNCCCNC(=N)N)cc5)c(=O)nc4[nH]3)c2)cc1 (stereo not drawn) [Compound 2002a]	–	− (a “−” indicates that the compound has an MIC value greater than 16 micrograms/ml)
N=C(N)NCCCNCc1ccc(-n2cc3cc(C4CCCN(Cc5cnc[nH]5)C4)[nH]c3nc2=O)cc1 (stereo not drawn) [Compound 2003a]	–	− (a “−” indicates that the compound has an MIC value greater than 16 micrograms/ml)
N=C(N)NCCCNCc1ccc(-n2cc3cc(-c4cc(CCO)cc(OCC(F)CN)c4)[nH]c3nc2=O)cc1 (stereo not drawn) [Compound 2004a]	–	− (a “−” indicates that the compound has an MIC value greater than 16 micrograms/ml)
N=C(N)NCCCNCc1ccc(-n2cc3cc(-c4cc(OCC(F)CN)cc(N5CCNCC5)c4)[nH]c3nc2=O)cc1 (stereo not drawn) [Compound 2005a]	–	+ (a “+” indicates that the compound has an MIC value of 16 micrograms/ml or less)
N=C(N)NCCCNCc1ccc(-n2cc3cc(-c4ccc(C(NC5CN(C(=N)N)C5)C(F)F)cc4)[nH]c3nc2=O)cc1 (stereo not drawn) [Compound 2006a]	–	+ (a “+” indicates that the compound has an MIC value of 16 micrograms/ml or less)
N=C(N)NCCCNCc1ccc(-n2cc3cc(-c4cccc(S(=O)(=O)NCCN)c4)[nH]c3nc2=O)cc1 [Compound 2007a]	–	+ (a “+” indicates that the compound has an MIC value of 16 micrograms/ml or less)
N=C(N)NCCCNCc1ccc(-n2cc3cc(-c4cc(CCCCN)cc(OC(F)(F)F)c4)[nH]c3nc2=O)cc1 [Compound 2009a]	< 16 µg/mL	–
N=C(N)NCCCNCc1ccc(-n2cc3cc(-c4cc(OCCCN)cc(N5CCNCC5)c4)[nH]c3nc2=O)cc1 [Compound 2010a]	–	+ (a “+” indicates that the compound has an MIC value of 16 micrograms/ml or less)
N=C(N)NCCCNCc1ccc(-n2cc3cc(-c4cc(CCN)cc(OCC(F)CN)c4)[nH]c3nc2=O)cc1 (stereo not drawn) [Compound 2011a]	–	+ (a “+” indicates that the compound has an MIC value of 16 micrograms/ml or less)
N=C(N)NCCCNCc1ccc(-n2cc3cc(-c4cc(CCNC(N)=O)cc(OCC(F)CN)c4)[nH]c3nc2=O)cc1 (stereo not drawn) [Compound 2012a]	–	− (a “−” indicates that the compound has an MIC value greater than 16 micrograms/ml)
N=C(N)NCCCNCc1ccc(-n2cc3cc(-c4cc(OCC(F)CN)cc(N5CCOCC5)c4)[nH]c3nc2=O)cc1 (stereo not drawn) [Compound 2013a]	–	+ (a “+” indicates that the compound has an MIC value of 16 micrograms/ml or less)
N=C(N)NCCCNCc1ccc(-n2cc3cc(C4CCCN(CCCF)C4)[nH]c3nc2=O)cc1 (stereo not drawn) [Compound 2017a]	< 16 µg/mL	–
CC(=O)NCCN1CCCC(c2cc3cn(-c4ccc(CNCCCNC(=N)N)cc4)c(=O)nc3[nH]2)C1 (stereo not drawn) [Compound 2018a]	< 16 µg/mL	–
N=C(N)NCCCNCc1ccc(-n2cc3cc(C4CCCN(CCNC(N)=O)C4)[nH]c3nc2=O)cc1 (stereo not drawn) [Compound 2019a]	< 16 µg/mL	–
N=C(N)CCCN1CCCC(c2cc3cn(-c4ccc(CNCCCNC(=N)N)cc4)c(=O)nc3[nH]2)C1 (stereo not drawn) [Compound 2020a]	< 16 µg/mL	–
CC(=O)NCCCN1CCCC(c2cc3cn(-c4ccc(CNCCCNC(=N)N)cc4)c(=O)nc3[nH]2)C1 (stereo not drawn) [Compound 2021a]	> 16 µg/mL	–
N=C(N)NCCCNCc1ccc(-n2cc3cc(C4CCCN(Cc5ncc[nH]5)C4)[nH]c3nc2=O)cc1 (stereo not drawn) [Compound 2022a]	> 16 µg/mL	–
N=C(N)NCCCNCc1ccc(-n2cc3cc(-c4cccc(C(NC5CN(C(=N)N)C5)C(F)(F)F)c4)[nH]c3nc2=O)cc1 (stereo not drawn) [Compound 2024a]	–	+ (a “+” indicates that the compound has an MIC value of 16 micrograms/ml or less)
